In patent US9187426B2, “Organic compounds” (Novartis AG, priority 2008, dated 2015) one finds melting point data, which are given here for 34 molecules.

For orientation: melting point means the temperature of the solid-liquid transition. `O=C(NCc1ccc(F)cc1)c1ccnc(N2CCN(Cc3ccccn3)C2=O)c1` [Example 15.15, N-(4-fluorobenzyl)-2-(2-oxo-3-(pyridin-2-ylmethyl)imidazolidin-1-yl)isonicotinamide] came in with a melting point of 141 to 142 °C.
In the case of `O=C(NCc1ccc(F)cc1)c1ccnc(N2CCN(Cc3ccncc3)C2=O)c1` [Example 15.16, N-(4-fluorobenzyl)-2-(2-oxo-3-(pyridin-4-ylmethyl)imidazolidin-1-yl)isonicotinamide] it was 161 to 163 °C.
As to `O=C(NCc1ccc(F)c(F)c1)c1ccnc(N2CCN(Cc3ccccn3)C2=O)c1` [Example 15.18, N-(3,4-difluorobenzyl)-2-(2-oxo-3-(pyridin-2-ylmethyl)imidazolidin-1-yl)isonicotinamide], the melting point fell in the range of 143 to 145 °C.
With `O=C(NCc1ccccc1)c1ccnc(N2CCN(Cc3ccncc3)C2=O)c1` [Example 15.19, N-benzyl-2-(2-oxo-3-(pyridin-4-ylmethyl)imidazolidin-1-yl)isonicotinamide] the figure was 154 to 156 °C.
With `O=C(NCc1ccc(F)cc1)c1ccnc(N2CCN(Cc3ccc(F)c(F)c3)C2=O)c1` [Example 15.20, 2-(3-(3,4-difluorobenzyl)-2-oxoimidazolidin-1-yl)-N-(4-fluorobenzyl)isonicotinamide] the figure was 165 to 167 °C; with `O=C(NCc1ccc(F)cc1)c1ccnc(N2CCN(C(F)(F)c3ccc(C(F)F)cc3)C2=O)c1` [Example 15.21, 2-(3-((4-(difluoromethyl)phenyl)difluoromethyl)-2-oxoimidazolidin-1-yl)-N-(4-fluorobenzyl)isonicotinamide], 173 to 175 °C.
`O=C(NCc1ccc(F)cc1)c1ccnc(N2CCN(Cc3ccc(F)cc3F)C2=O)c1` [Example 15.22, 2-(3-(2,4-difluorobenzyl)-2-oxoimidazolidin-1-yl)-N-(4-fluorobenzyl)isonicotinamide] returned a melting point of 171 to 173 °C.
In the case of `O=C(NCc1ccccc1)c1ccnc(-n2cnn(Cc3ccc(F)cc3)c2=O)c1` [Example 16, N-benzyl-2-(1-(4-fluorobenzyl)-5-oxo-1H-1,2,4-triazol-4(5H)-yl)isonicotinamide] it was 173 to 175 °C; in that of `O=C(NCc1ccccc1)c1ccnc(-n2ccc(-c3ccccc3)cc2=O)c1` [Example 17, N-benzyl-2-(2-oxo-4-phenylpyridin-1(2H)-yl)isonicotinamide], 162 to 163 °C.
With `O=C(NCc1ccccc1)c1ccnc(N2CCC(c3ccccc3)CC2=O)c1` (stereo not shown) [Example 18, 2-oxo-4-phenyl-3,4,5,6-tetrahydro-2H-[1,2′]bipyridinyl-4′-carboxylic acid benzylamide] the figure was 55 to 60 °C.
`O=C(NCc1ccccc1)c1ccnc(-n2ccc(OCc3ccccc3)cc2=O)c1` [Example 19, 4-benzyloxy-2-oxo-2H-[1,2′]bipyridinyl-4′-carboxylic acid benzylamide]: the melting point is 158 to 161 °C.
With `O=C(NCc1ccccc1)c1ccnc(-n2ccc(O)cc2=O)c1` [Example 20, 4-hydroxy-2-oxo-2H-[1,2′]bipyridinyl-4′-carboxylic acid benzylamide] the figure was 102 to 105 °C; with `NC(=O)c1ccnc(N2CCN(Cc3ccc(F)cc3)C2=O)c1` [Example 22, 2-(3-(4-fluorobenzyl)-2-oxoimidazolidin-1-yl)isonicotinamide], 206 to 208 °C; with `Cc1nnc(CNC(=O)c2ccnc(N3CCN(Cc4ccc(F)cc4)C3=O)c2)o1` [Example 26.1, 2-(3-(4-Fluorobenzyl)-2-oxoimidazolidin-1-yl)-N-((5-methyl-1,3,4-oxadiazol-2-yl)methyl)isonicotinamide], 136 to 138 °C.
With `O=C(NCc1ccc(F)cc1)c1ccnc(N2CCN(Cc3ccc(C(F)(F)F)cc3)C2=O)c1` [Example 26.2, N-(4-Fluorobenzyl)-2-(2-oxo-3-(4-(trifluoromethyl)benzyl)imidazolidin-1-yl)isonicotinamide] the figure was 168 to 170 °C; with `O=C(NCc1nnco1)c1ccnc(N2CCN(Cc3ccc(F)cc3)C2=O)c1` [Example 26.4, N-((1,3,4-Oxadiazol-2-yl)methyl)-2-(3-(4-fluorobenzyl)-2-oxoimidazolidin-1-yl)isonicotinamide], 211 to 213 °C.
With `O=C(NCc1ccccc1)c1ccnc(N2CCN(Cc3ccc4nonc4c3)C2=O)c1` [Example 26.5, 2-(3-(Benzo[c][1,2,5]-oxadiazol-5-ylmethyl)-2-oxoimidazolidin-1-yl)-N-benzylisonicotinamide] the figure was 165 to 167 °C.
For the molecule `CC(NC(=O)c1ccnc(N2CCN(Cc3ccc(F)cc3)C2=O)c1)c1ccccc1` (stereo not shown) [Example 26.6, 2-(3-(4-Fluorobenzyl)-2-oxoimidazolidin-1-yl)-N-(1-phenylethyl)-isonicotinamide], the melting point fell in the range of 115 to 117 °C.
With `Cc1nc(CNC(=O)c2ccnc(N3CCN(Cc4ccc(F)cc4)C3=O)c2)no1` [Example 26.7, 2-(3-(4-Fluorobenzyl)-2-oxoimidazolidin-1-yl)-N-((5-methyl-1,2,4-oxadiazol-3-yl)methyl)-isonicotinamide] the figure was 163 to 165 °C.
With `O=C(NCc1ccccn1)c1cc(N2CCN(Cc3ccc(F)cc3)C2=O)nc2ccccc12` [Example 26.8, 2-(3-(4-Fluorobenzyl)-2-oxoimidazolidin-1-yl)-N-(pyridin-2-ylmethyl)quinoline-4-carboxamide] the figure was 161 to 163 °C; with `O=C(NCc1cc(Br)no1)c1ccnc(N2CCN(Cc3ccc(F)cc3)C2=O)c1` [Example 26.9, N-((3-Bromoisoxazol-5-yl)methyl)-2-(3-(4-fluorobenzyl)-2-oxoimidazolidin-1-yl)isonicotinamide], 178 to 180 °C.
With `O=C(NCc1cc(-c2ccccc2)on1)c1ccnc(N2CCN(Cc3ccc(F)cc3)C2=O)c1` [Example 26.10, 2-(3-(4-Fluorobenzyl)-2-oxoimidazolidin-1-yl)-N-((5-phenylisoxazol-3-yl)methyl)-isonicotinamide] the figure was 199 to 201 °C; with `O=C(NCc1cnc(Cl)s1)c1ccnc(N2CCN(Cc3ccc(F)cc3)C2=O)c1` [Example 26.11, N-((2-Chlorothiazol-5-yl)methyl)-2-(3-(4-fluorobenzyl)-2-oxoimidazolidin-1-yl)isonicotinamide], 185 to 186 °C; with `O=C(NCc1cncs1)c1ccnc(N2CCN(Cc3ccc(OC(F)(F)F)cc3)C2=O)c1` [Example 26.14, 2-(2-Oxo-3-(4-(trifluoromethoxy)benzyl)imidazolidin-1-yl)-N-(thiazol-5-ylmethyl)-isonicotinamide], 189 to 191 °C.
`O=C(NCc1cccnc1)c1ccnc(N2CCN(Cc3ccc(OC(F)(F)F)cc3)C2=O)c1` [Example 26.16, 2-(2-Oxo-3-(4-(trifluoromethoxy)-benzyl)imidazolidin-1-yl)-N-(pyridin-3-ylmethyl)-isonicotinamide] came in with a melting point of 185 to 187 °C.
In the case of `O=C(NCc1nccs1)c1ccnc(N2CCN(Cc3ccc(OC(F)(F)F)cc3)C2=O)c1` [Example 26.17, 2-(2-Oxo-3-(4-(trifluoromethoxy)benzyl)imidazolidin-1-yl)-N-(thiazol-2-ylmethyl)-isonicotinamide] it was 97 to 99 °C; in that of `O=C(NCc1cnc(Cl)s1)c1ccnc(N2CCN(Cc3ccc(C(F)(F)F)cc3)C2=O)c1` [Example 26.20, N-((2-Chlorothiazol-5-yl)methyl)-2-(2-oxo-3-(4-(trifluoromethyl)-benzyl)imidazolidin-1-yl)isonicotinamide], 209 to 211 °C; in that of `O=C(NCc1nccs1)c1ccnc(-n2cnn(Cc3ccc(F)cc3)c2=O)c1` [Example 26.21, 2-(1-(4-Fluorobenzyl)-5-oxo-1H-1,2,4-triazol-4(5H)-yl)-N-(thiazol-2-ylmethyl)-isonicotinamide], 170 to 172 °C.
In the case of `O=C(NCc1cncs1)c1ccnc(N2CCN(Cc3ccc(F)c(F)c3)C2=O)c1` [Example 26.24, 2-(3-(3,4-Difluorobenzyl)-2-oxoimidazolidin-1-yl)-N-(thiazol-5-ylmethyl)-isonicotinamide] it was 111 to 113 °C.
In the case of `O=C(NCc1nccs1)c1ccnc(N2CCN(Cc3ccc(F)c(F)c3)C2=O)c1` [Example 26.25, 2-(3-(3,4-Difluorobenzyl)-2-oxoimidazolidin-1-yl)-N-(thiazol-2-ylmethyl)-isonicotinamide] it was 105 to 107 °C.
In the case of `O=C(NCc1cncs1)c1ccnc(-n2cnn(Cc3ccc(F)cc3)c2=O)c1` [Example 26.26, 2-(1-(4-Fluorobenzyl)-5-oxo-1H-1,2,4-triazol-4(5H)-yl)-N-(thiazol-5-ylmethyl)-isonicotinamide], the melting point fell in the range of 181 to 183 °C.
With `O=C(NCc1nccs1)c1ccnc(-n2cnn(Cc3ccc(F)c(F)c3)c2=O)c1` [Example 26.28, 2-(1-(3,4-Difluorobenzyl)-5-oxo-1H-1,2,4-triazol-4(5H)-yl)-N-(thiazol-2-ylmethyl)-isonicotinamide] the figure was 161 to 163 °C.
In the case of `O=C(NCc1cnc(Cl)s1)c1ccnc(N2CCN(Cc3ccc(F)c(F)c3)C2=O)c1` [Example 26.33, N-((2-Chlorothiazol-5-yl)methyl)-2-(3-(3,4-difluorobenzyl)-2-oxoimidazolidin-1-yl)isonicotinamide] it was 161 to 163 °C; in that of `O=C(NCc1cnc(Cl)s1)c1ccnc(N2CCN(Cc3ccc(OC(F)(F)F)cc3)C2=O)c1` [Example 26.34, N-((2-Chlorothiazol-5-yl)methyl)-2-(2-oxo-3-(4-(trifluoromethoxy)-benzyl)imidazolidin-1-yl)isonicotinamide], 184 to 186 °C.
